Experimental data published in patent US11512042B2, “Enamine compounds for absorbance of electromagnetic energy” (Commonwealth Scientific and Industrial Research Organisation, priority 2015, dated 2022).
Several values for one entry are separate records, joined by “and”; a condition that tells them apart may be missing. Equal entries are not always repeated.

Legend:
Assay type in all cases: physicochemical
[1] = % transmission spectrum of 0.1% solution (breakthrough, steepness); conditions: for Steepness: distance in nm over which transmittance increases from 1 to 80%; for Breakthrough (1% T at 0.1%): value in nm where transmittance increases beyond 1%, 0.1% solution
Text: FIG. 2 is a is a graphical representation of the % transmission of compounds 142 and 143 measured in a 2 mm cuvette as 0.1% solutions in methanol (142 is the left most trace);
The synthesised benzoyl functionalised compounds and their spectroscopic properties can be seen in table 2 wherein; breakthrough denotes the value in nm where transmittance increases beyond 1%; steepness refers to the distance in nm over which transmittance increases from 1 to 80% (a higher value indicates a less steep transition from absorbing to transmitting and is generally unfavourable); and ^a denotes an average of multiple measurements. As a general comment, it can be noted that the benzoyl substituted compounds gave similar absorbance maxima to the corresponding trifluoroacetyl derivative.

[2] = UV absorbance spectrum in solution (λmax, λcrit, extinction coefficients); conditions: for λcrit: critical wavelength; for E (1%, 1 cm): mass extinction coefficient; for ε: molar extinction coefficient, in M-1 cm-1 (unit assumed)
In short: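 Spectra taken on 0.001% solutions in methanol, 10 mm path. Breakthrough is the wavelength where transmittance rises above 1%; steepness is the nm span over which transmittance goes from 1 to 80%.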

[3] = Photostability protocol: thin film irradiated with xenon arc lamp; conditions: 1 hour xenon arc lamp; for Photostability: ratio of absorbance at λmax irradiated vs unirradiated, ^a = average of multiple measurements
Experimental: 1 mL of a 3% solution of the test compound (30 mg of test compound in 1 mL solvent) was prepared in a solvent mix made up of 50% EtOH and 25% capric/caprylic triglyceride and 25% C12-C15 alkyl benzoate. 50 μL of this solution (containing 1.5 mg of test compound) was added carefully to the centre of a glass microscope slide and the volatile components left to evaporate in the dark for at least 3 hours to give a liquid film. The prepared films were then exposed for 1 hour to an Eimac 150 W xenon arc lamp filtered through Pyrex (15 Amp supply current, samples 19 cm from the lamp) previously allowed to warm up for 15 minutes prior to sample exposure. The irradiation was performed in a fume cupboard where the air flow was sufficient to keep sample T<30° C. One hour's exposure represented a calculated radiation dose (using meter) of approximately 100 MED.
In order to calculate the photostability of the test compounds, the exposed slides were placed in a beaker and rinsed with 2×5 mL EtOH, 1×5 mL MeOH. The combined washings were then added to a 100 mL volumetric flask and made up to 100 mL total volume with methanol. The UV absorbance was then measured in a 10 mm cuvette. The percent stability is measured as the ratio of absorbance at λmax for the irradiated sample compared to the unirradiated sample.
The thin films are a good surrogate for testing the stability of a candidate in, for example, a sunscreen formulation as they use cosmetic emollients as solvent and are formed at cosmetically relevant concentrations.

Structure (SMILES)	Steepness [1] [nm]	Breakthrough (1% T at 0.1%) [1]	λmax [2] [nm]	λcrit [2] [nm]	E (1%, 1 cm) [2]	ε [2]	Photostability [3]	Photostability (% remains) [3] [%]
CCN(/C=C(/C(=O)c1ccccc1OC)c1ccccc1)c1ccccc1 [Compound 276]	40	379 nm	327	366	711	25385	56%	–
CCCCC(CC)COC(=O)c1ccc2c(c1)CCN2C=C(C(=O)c1c(C)cc(C)cc1C)c1ccccc1 (stereo not drawn) [Compound 303]	24	399 nm	369	382	1164	60921	94% and 93%	–
COC(=O)c1ccc2c(c1)CCN2/C=C(/C(=O)C(=O)N1CCc2ccccc21)c1ccccc1 [Compound 305]	23	417 nm	375	391	1078	48709	80% and 75%	–
CCN(/C=C(/C(=O)c1ccc(S(=O)(=O)N(C)C)cc1)c1ccccc1)c1ccccc1 [Compound 264]	46	403 nm	340	381	433	18791	20%	–
CN(C)/C=C(/C(=O)c1ccccc1)c1ccccc1 [Compound 240]	40	379 nm	313	361	776	19475	10%	–
CCOC(=O)C(=O)/C(=C/N(c1ccccc1)c1ccccc1)c1ccccc1 [Compound 237]	39	400 nm	348	380	775	28737	83%	–
COC(=O)c1ccc2c(c1)CCN2C=C(C(=O)c1c(C)cc(C)cc1C)c1ccccc1 [Compound 282]	23	402 nm	368	382	1427	60650	89% and 91%	–
COC(=O)c1ccc2c(c1)CCN2C=C(C(=O)C(C)(C)C)c1ccc(C(C)(C)C)cc1 [Compound 296]	16	401 nm	368	384	1213	50838	73%	–
CC(C)(C)C(=O)/C(=C/N1CCc2cc(C(=O)OCCCOC(=O)c3ccc4c(c3)CCN4/C=C(/C(=O)C(C)(C)C)c3ccccc3)ccc21)c1ccccc1 [Compound 304]	19	401 nm	365	384	1023	75535	90% and 92%	–
O=C(/C(=C/N(c1ccccc1)c1ccccc1)c1ccccc1)c1ccccc1 [Compound 244]	43	407 nm	352	383	536	20114	58%	–
CC1(C)CN(/C=C(/C(=O)c2ccccc2)c2ccccc2)c2ccccc21 [Compound 246]	43	405 nm	357	385	451	15933	53%	–
CCN(/C=C(/C(=O)C(=O)N(C)C)c1ccccc1)CC [Compound 261]	28	355 nm	310	342	844	23144	63%	–
CCCCN(/C=C(/C(=O)C(F)(F)F)c1ccccc1)c1ccccc1 [Compound 234]	31	381 nm	330	365	704	24440	87%	–
Cc1ccccc1C(=O)/C(=C/N(c1ccccc1)c1ccccc1)c1ccccc1 [Compound 250]	37	389 nm	341	373	738	28714	60%	–
CCN(/C=C(\C(=O)C(F)(F)F)c1ccccc1)CC [Compound 144]	23	361 nm	319	350	860	23306	97%	97
CC(C)(C)OC(=O)C(=O)/C(=C/N1CCc2ccccc21)c1ccccc1 [Compound 267]	32	417 nm	366	389	940	32824	76%	–
CCN(/C=C(/C(=O)c1ccccc1)c1ccccc1)CC [Compound 268]	48	374 nm	312	360	656	18293	10%	–
CCN(/C=C(/C(=O)c1ccccc1)c1ccccc1)c1ccccc1 [Compound 245]	40	384 nm and 394 nm	333	374	621	20292	55%	–
CCOC(=O)C(=O)/C(=C/N(CC)CC)c1ccccc1 [Compound 260]	38	363 nm	313	352	726	19983	40%	–
Cc1ccccc1C(=O)/C(=C/N1CCc2ccccc21)c1ccccc1 [Compound 251]	30	399 nm	355	378	991	33598	52%	–
CCCCC(CC)COC(=O)c1ccc2c(c1)CCN2/C=C(/C(=O)C(C)(C)C)c1ccc(C#N)cc1 (stereo not drawn) [Compound 310]	22	402 nm	368	385	1039	50502	78% and 81%	–
COC(=O)c1ccc2c(c1)CCN2/C=C(/C(=O)C(=O)OC(C)(C)C(=O)OC)c1ccccc1 [Compound 279]	32	412 nm	368	386	1304	58842	32%	–
CN(C)C(=O)C(=O)/C(=C/N(c1ccccc1)c1ccccc1)c1ccccc1 [Compound 257]	32	394 nm	346	378	382	14163	85%	–
COC(=O)c1ccc2c(c1)CCN2/C=C(/C(=O)c1ccccc1)c1ccccc1 [Compound 247]	34	422 nm	371	389	1096	41977	76%	–
COC(=O)c1ccc2c(c1)CCN2C=C(C(=O)C(C)(C)C)c1ccc(C)cc1 [Compound 295]	16	402 nm	368	385	1307	49288	68%	–
CCN(CC)C(=O)C(=O)/C(=C/N1CCc2cc(C(=O)OC)ccc21)c1ccccc1 [Compound 290]	22	412 nm	370	389	1260	51191	53%	–
